Test results published in publication PMC8956739, “A synthetic lipopeptide targeting top-priority multidrug-resistant Gram-negative pathogens” (Nature Communications, 2022).
In brackets after ≈: the same amount, converted by molar mass. Where two headings read alike, the source gives them in different places. Residues, ends and D or L forms follow the SMILES beside them.

Assays:
[1] = system: A. baumannii ATCC 19606; format: cell-based, Acinetobacter baumannii
Protocol: (§1) MICs were determined in cation-adjusted Mueller–Hinton broth (CaMHB) by the broth micro-dilution method against ATCC strains and clinical isolates. MICs in the presence of Survanta® were determined as described above against P. aeruginosa ATCC 27853. In the 100 μL of fresh CaMHB containing polymyxins, 10% Survanta® (v/v, 2.5 mg/mL phospholipids) was added. MICs in the presence and absence of Survanta® were compared to determine the effect of binding to lung surfactant on the antibacterial activity of polymyxins.

[2] = system: A. baumannii FADDI-AB030; format: cell-based, Acinetobacter baumannii
Protocol: as §1

[3] = system: A. baumannii FADDI-AB034; format: cell-based, Acinetobacter baumannii
Protocol: as §1

[4] = system: P. aeruginosa FADDI-PA038; format: cell-based, Pseudomonas aeruginosa
Protocol: as §1

[5] = system: P. aeruginosa FADDI-PA025; format: cell-based, Pseudomonas aeruginosa
Protocol: as §1

[6] = system: P. aeruginosa ATCC 27853; format: cell-based, Pseudomonas aeruginosa
Protocol: as §1

[7] = system: Swiss mice, kidney; experiment: Nephrotoxicity in mice (kidney histopathology); format: in vivo, mouse; details: for Kidney histopathology (SQS Score): 72 mg/kg/d subcutaneously in six divided doses every 2 h, n = 3; for Kidney histopathology, mice with the SQS score: mouse, in vivo
Protocol: The experimental methodology has been previously reported by our group. Briefly, individual lipopeptide solutions were prepared in sterile saline (6 mg/mL). Swiss mice (female, 7-week-old, 22–28 g) were subcutaneously administered at 12 mg/kg in, 6 doses every 2 h to reach a total dose of 72 mg/kg (n = 3). For high-dose nephrotoxicity experiments, mice were intraperitoneally administered at 20 or 25 mg/kg, in 6 doses every 2 h to reach a total dose of 120 mg/kg (n = 6) or 150 mg/kg (n = 3). At 20 h after the last dose, the right kidney from each mouse was collected and placed in 10% buffered (pH 7.4) formalin (Sigma-Aldrich, Castle Hill, NSW, Australia). The kidneys were subjected to histological examination at the Australian Phenomics Network-Histopathology and Organ Pathology (University of Melbourne, Parkville, VIC, Australia), who was blind to the treatment groups.

[8] = system: K. pneumoniae FADDI-KP032; format: cell-based, Klebsiella pneumoniae
Protocol: as §1

[9] = system: K. pneumoniae FADDI-KP065; format: cell-based, Klebsiella pneumoniae
Protocol: as §1

| MIC A. baumannii ATCC 19606 ([1]; ATCC 19606) | MIC A. baumannii FADDI-AB030 ([2]; FADDI-AB030) | MIC A. baumannii FADDI-AB034 ([3]; FADDI-AB034) | MIC P. aeruginosa FADDI-PA038 ([4]; FADDI-PA038) | MIC P. aeruginosa FADDI-PA025 ([5]; FADDI-PA025) | MIC P. aeruginosa ATCC 27853 ([6]; ATCC 27853) | MIC K. pneumoniae FADDI-KP032 ([8]; FADDI-KP032) | MIC K. pneumoniae FADDI-KP065 ([9]; FADDI-KP065) | Compound | Kidney histopathology (SQS Score) [7] | Kidney histopathology, mice with the SQS score [7] | MIC A. baumannii ATCC 19606 [1] | MIC A. baumannii FADDI-AB030 ([2]; carbapenem-resistant isolate) | MIC A. baumannii FADDI-AB034 ([3]; carbapenem-resistant isolate) | MIC P. aeruginosa FADDI-PA038 ([4]; carbapenem-resistant isolate) | MIC P. aeruginosa FADDI-PA025 ([5]; MDR clinical isolate) | MIC P. aeruginosa ATCC 27853 [6] | MIC, 10% Survanta ([6]; P. aeruginosa ATCC 27853, 10% Survanta) | MIC, No Survanta ([6]; P. aeruginosa ATCC 27853, no surfactant) | MIC K. pneumoniae FADDI-KP032 ([8]; carbapenem-resistant isolate) | MIC K. pneumoniae FADDI-KP065 ([9]; carbapenem-resistant isolate) |
| --- | --- | --- | --- | --- | --- | --- | --- | --- | --- | --- | --- | --- | --- | --- | --- | --- | --- | --- | --- | --- |
| >32 µg/mL | 32 µg/mL (≈ 28.3 µM) | >32 µg/mL | >32 µg/mL | >32 µg/mL | >32 µg/mL | 1 µg/mL (≈ 0.885 µM) | 2 µg/mL (≈ 1.77 µM) | CCCCCCCC(=O)N[C@@H](CCN)C(=O)N[C@H](C(=O)N[C@@H](CCN)C(=O)N[C@H]1CCNC(=O)[C@H]([C@@H](C)O)NC(=O)[C@H](CCN)NC(=O)[C@H](CCN)NC(=O)[C@H]([C@@H](C)O)NC(=O)[C@@H](C(C)C)NC(=O)[C@H](CCN)NC1=O)[C@@H](C)O [Lipopeptide F229] (HELM PEPTIDE1{[CCCCCCCC(=O)[*:2]].[Dab].T.[Dab].[Dab].[Dab].[dV].T.[Dab].[Dab].T}$PEPTIDE1,PEPTIDE1,5:R3-11:R2$$$V2.0) | 0 (SQS 0 = no significant change (overall score, <1)) | 3/3 |  |  |  |  |  |  |  |  |  |  |
| >32 µg/mL | >32 µg/mL | >32 µg/mL | >32 µg/mL | >32 µg/mL | >32 µg/mL | 16 µg/mL (≈ 14.1 µM) | 32 µg/mL (≈ 28.3 µM) | CCCCCCCC(=O)N[C@@H](CCN)C(=O)N[C@H](C(=O)N[C@@H](CCN)C(=O)N[C@H]1CCNC(=O)[C@H]([C@@H](C)O)NC(=O)[C@H](CCN)NC(=O)[C@H](CCN)NC(=O)[C@H]([C@@H](C)O)NC(=O)[C@@H]([C@H](C)O)NC(=O)[C@H](CCN)NC1=O)[C@@H](C)O [Lipopeptide F230] (HELM PEPTIDE1{[CCCCCCCC(=O)[*:2]].[Dab].T.[Dab].[Dab].[Dab].[dT].T.[Dab].[Dab].T}$PEPTIDE1,PEPTIDE1,5:R3-11:R2$$$V2.0) | 0 (SQS 0 = no significant change (overall score, <1)) | 3/3 |  |  |  |  |  |  |  |  |  |  |
|  |  |  |  |  |  |  |  | CC[C@@H]1NC(=O)[C@@H](CC(C)C)NC(=O)[C@H](CCN)NC(=O)[C@@H](NC(=O)[C@H](CN)NC(=O)[C@@H](NC(=O)[C@H](CCN)NC(=O)c2ccccc2Cl)[C@@H](C)O)CCNC(=O)[C@H]([C@@H](C)O)NC(=O)[C@H](CCN)NC(=O)[C@H](CCN)NC1=O [Lipopeptide F350] (HELM PEPTIDE1{[O=C(c1ccccc1Cl)[*:2]].[Dab].T.[NC[C@H](N[*:1])C(=O)[*:2]].[Dab].[Dab].[dL].[Abu].[Dab].[Dab].T}$PEPTIDE1,PEPTIDE1,5:R3-11:R2$$$V2.0; bridges inferred) |  |  | 8 µg/mL (≈ 7.11 µM) | 4 µg/mL (≈ 3.55 µM) | 4 µg/mL (≈ 3.55 µM) | 2 µg/mL (≈ 1.78 µM) | 4 µg/mL (≈ 3.55 µM) | 0.5 µg/mL (≈ 0.444 µM) | 0.5 µg/mL (≈ 0.444 µM) | 0.5 µg/mL (≈ 0.444 µM) | 1 µg/mL (≈ 0.888 µM) | 0.5 µg/mL (≈ 0.444 µM) |
